Assay results published in patent US6355799B1, “Substituted benzene compounds, process for their preparation, and herbicidal and defoliant compositions containing them” (ISK Americas Incorporated, priority 1997, dated 2002).

Legend:
Format in all cases: in vivo
[1] = system: sicklepod (Cassia obtusifolia, CASOB); test: Pre-emerge test, greenhouse herbicide activity screening; details: rating scale 0-100, 14 days after application
Summary of the method: (§1)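 Sandy loam pots; pre-emerge: sown 1 d pre-spray, surface-watered after, then bottom-watered. Post-emerge: sown 8–21 d before, 2–3 leaf stage, + 0.25% v/v NIS, bottom-watered. Acetone, 187 l/ha track spray, 15–1000 g ai/ha. 0–100 injury score, day 14.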

[2] = system: ivyleaf morningglory (Ipomoea hederacea, IPOHE); test: as above; details: rating scale 0-100, 14 days after application
Summary of the method: as §1

[3] = system: barnyardgrass (Echinochloa crus-galli, ECHCG); test: as above; details: rating scale 0-100, 14 days after application
Summary of the method: as §1

[4] = system: lambsquarters (Chenopodium album, CHEAL); test: as above; details: rating scale 0-100, 14 days after application
Summary of the method: as §1

[5] = system: johnsongrass (Sorghum halepense, SORHA); test: as above; details: rating scale 0-100, 14 days after application
Summary of the method: as §1

[6] = system: velvetleaf (Abutilon theophrasti, ABUTH); test: as above; details: rating scale 0-100, 14 days after application
Summary of the method: as §1

[7] = system: green foxtail (Setaria viridis, SETVI); test: as above; details: rating scale 0-100, 14 days after application
Summary of the method: as §1

[8] = system: common ragweed (Ambrosia artemisizfolia L., AMBEL); test: as above; details: rating scale 0-100, 14 days after application
Summary of the method: as §1

[9] = system: large crabgrass (Digitaria sanguinalis, DIGSA); test: as above; details: rating scale 0-100, 14 days after application
Summary of the method: as §1

[10] = system: field corn (Zea mays L., var. Dekalb 535, CORN); test: Pre-emerge test, crop safety; details: rating scale 0-100, 14 days after application
Summary of the method: (§2)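 Compounds in acetone were track-sprayed at 187 l/ha, 15–1000 g ai/ha, onto sandy loam pots. Pre-emerge seeds were sown one day before spraying, with surface watering afterwards. Post-emerge plants were at the 2–3 leaf stage and sprayed with 0.25% v/v non-ionic surfactant. Injury was rated 0–100 at 14 days.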

[11] = system: upland rice (Oryza sp., var. Tebonnet, RICE); test: Pre-emerge test, crop safety; details: rating scale 0-100, 14 days after application
Summary of the method: as §2

[12] = system: sicklepod (Cassia obtusifolia, CASOB); test: Post-emerge test, greenhouse herbicide activity screening; details: rating scale 0-100 (0 no damage, 100 complete death), 14 days after application
Summary of the method: (§3)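 Compounds in acetone were track-sprayed at 15-1000 g ai/ha (187 l/ha) on sandy loam pots: pre-emerge one day after seeding, post-emerge at 2-3 leaf stage with 0.25% v/v non-ionic surfactant. Phytotoxicity was rated 14 days later on a 0 (no damage) to 100 (complete death) scale.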

[13] = system: ivyleaf morningglory (Ipomoea hederacea, IPOHE); test: as above; details: rating scale 0-100 (0 no damage, 100 complete death), 14 days after application
Summary of the method: as §3

[14] = system: barnyardgrass (Echinochloa crus-galli, ECHCG); test: as above; details: rating scale 0-100 (0 no damage, 100 complete death), 14 days after application
Summary of the method: as §3

[15] = system: lambsquarters (Chenopodium album, CHEAL); test: as above; details: rating scale 0-100 (0 no damage, 100 complete death), 14 days after application
Summary of the method: as §3

[16] = system: redroot pigweed (Amaranthus retroflexus, AMARE); test: as above; details: rating scale 0-100 (0 no damage, 100 complete death), 14 days after application
Summary of the method: as §3

[17] = system: johnsongrass (Sorghum halepense, SORHA); test: as above; details: rating scale 0-100 (0 no damage, 100 complete death), 14 days after application
Summary of the method: as §3

[18] = system: velvetleaf (Abutilon theophrasti, ABUTH); test: as above; details: rating scale 0-100 (0 no damage, 100 complete death), 14 days after application
Summary of the method: as §3

[19] = system: green foxtail (Setaria viridis, SETVI); test: as above; details: rating scale 0-100 (0 no damage, 100 complete death), 14 days after application
Summary of the method: as §3

[20] = system: common ragweed (Ambrosia artemisizfolia L., AMBEL); test: as above; details: rating scale 0-100 (0 no damage, 100 complete death), 14 days after application
Summary of the method: as §3

[21] = system: large crabgrass (Digitaria sanguinalis, DIGSA); test: as above; details: rating scale 0-100 (0 no damage, 100 complete death), 14 days after application
Summary of the method: as §3

[22] = system: field corn (Zea mays L., var. Dekalb 535, CORN); test: Post-emerge test, crop safety; details: rating scale 0-100 (0 no damage, 100 complete death), 14 days after application
Summary of the method: as §1

[23] = system: upland rice (Oryza sp., var. Tebonnet, RICE); test: Post-emerge test, crop safety; details: rating scale 0-100 (0 no damage, 100 complete death), 14 days after application
Summary of the method: as §1

[24] = system: redroot pigweed (Amaranthus retroflexus, AMARE); test: Pre-emerge test, greenhouse herbicide activity screening; details: rating scale 0-100, 14 days after application
Summary of the method: as §3

In the case of CCCOC(=O)C(Cl)Cc1c(OC)c(Cl)cc(F)c1-n1c(=O)cc(C(F)(F)F)n(C)c1=O (single isomer, unassigned) [14-7], the “Pre-emerge herbicidal activity, phytotoxicity rating CASOB” value ([1]; 63 g ai/ha) is reported as 20, the “Pre-emerge herbicidal activity, phytotoxicity rating CASOB” value ([1]; 250 g ai/ha) is reported as 0 and the “Pre-emerge herbicidal activity, phytotoxicity rating IPOHE” value ([2]; 63 g ai/ha) is reported as 0. The “Pre-emerge herbicidal activity, phytotoxicity rating IPOHE” value ([2]; 250 g ai/ha) was 0, the “Pre-emerge herbicidal activity, phytotoxicity rating ECHCG” value ([3]; 63 g ai/ha) was 0 and the “Pre-emerge herbicidal activity, phytotoxicity rating ECHCG” value ([3]; 250 g ai/ha) was 75. For the same molecule, the “Pre-emerge herbicidal activity, phytotoxicity rating CHEAL” value ([4]; 63 g ai/ha) was 40, the “Pre-emerge herbicidal activity, phytotoxicity rating CHEAL” value ([4]; 250 g ai/ha) was 85 and the “Pre-emerge herbicidal activity, phytotoxicity rating SORHA” value ([5]; 63 g ai/ha) was 0. The “Pre-emerge herbicidal activity, phytotoxicity rating SORHA” value ([5]; 250 g ai/ha) was 70, the “Pre-emerge herbicidal activity, phytotoxicity rating ABUTH” value ([6]; 63 g ai/ha) was 100 and the “Pre-emerge herbicidal activity, phytotoxicity rating ABUTH” value ([6]; 250 g ai/ha) was 100. For the same molecule, the “Pre-emerge herbicidal activity, phytotoxicity rating SETVI” value ([7]; 63 g ai/ha) was 10, the “Pre-emerge herbicidal activity, phytotoxicity rating SETVI” value ([7]; 250 g ai/ha) was 90 and the “Pre-emerge herbicidal activity, phytotoxicity rating AMBEL” value ([8]; 63 g ai/ha) was 0. For the same molecule, the “Pre-emerge herbicidal activity, phytotoxicity rating AMBEL” value ([8]; 250 g ai/ha) was 50, the “Pre-emerge herbicidal activity, phytotoxicity rating DIGSA” value ([9]; 63 g ai/ha) was 90 and the “Pre-emerge herbicidal activity, phytotoxicity rating DIGSA” value ([9]; 250 g ai/ha) was 100. For the same molecule, the “Pre-emerge phytotoxicity rating, crop damage CORN” value ([10]; 63 g ai/ha) was 10, the “Pre-emerge phytotoxicity rating, crop damage CORN” value ([10]; 250 g ai/ha) was 90 and the “Pre-emerge phytotoxicity rating, crop damage RICE” value ([11]; 63 g ai/ha) was 0. For the same molecule, the “Pre-emerge phytotoxicity rating, crop damage RICE” value ([11]; 250 g ai/ha) was 40, the “Post-emerge Herbicidal Activity, phytotoxicity rating CASOB” value ([12]; Rate 63 g ai/ha) was 0 and the “Post-emerge Herbicidal Activity, phytotoxicity rating CASOB” value ([12]; Rate 250 g ai/ha) was 20. The “Post-emerge Herbicidal Activity, phytotoxicity rating IPOHE” value ([13]; Rate 63 g ai/ha) was 20, the “Post-emerge Herbicidal Activity, phytotoxicity rating IPOHE” value ([13]; Rate 250 g ai/ha) was 60 and the “Post-emerge Herbicidal Activity, phytotoxicity rating ECHCG” value ([14]; Rate 63 g ai/ha) was 100. For the same molecule, the “Post-emerge Herbicidal Activity, phytotoxicity rating ECHCG” value ([14]; Rate 250 g ai/ha) was 100, the “Post-emerge Herbicidal Activity, phytotoxicity rating CHEAL” value ([15]; Rate 63 g ai/ha) was 90 and the “Post-emerge Herbicidal Activity, phytotoxicity rating CHEAL” value ([15]; Rate 250 g ai/ha) was 99. For the same molecule, the “Post-emerge Herbicidal Activity, phytotoxicity rating AMARE” value ([16]; Rate 63 g ai/ha) was 95, the “Post-emerge Herbicidal Activity, phytotoxicity rating AMARE” value ([16]; Rate 250 g ai/ha) was 100 and the “Post-emerge Herbicidal Activity, phytotoxicity rating SORHA” value ([17]; Rate 63 g ai/ha) was 70. For the same molecule, the “Post-emerge Herbicidal Activity, phytotoxicity rating SORHA” value ([17]; Rate 250 g ai/ha) was 90, the “Post-emerge Herbicidal Activity, phytotoxicity rating ABUTH” value ([18]; Rate 63 g ai/ha) was 50 and the “Post-emerge Herbicidal Activity, phytotoxicity rating ABUTH” value ([18]; Rate 250 g ai/ha) was 100. For the same molecule, the “Post-emerge Herbicidal Activity, phytotoxicity rating SETVI” value ([19]; Rate 63 g ai/ha) was 60, the “Post-emerge Herbicidal Activity, phytotoxicity rating SETVI” value ([19]; Rate 250 g ai/ha) was 85 and the “Post-emerge Herbicidal Activity, phytotoxicity rating AMBEL” value ([20]; Rate 63 g ai/ha) was 50. The “Post-emerge Herbicidal Activity, phytotoxicity rating AMBEL” value ([20]; Rate 250 g ai/ha) was 90, the “Post-emerge Herbicidal Activity, phytotoxicity rating DIGSA” value ([21]; Rate 63 g ai/ha) was 80 and the “Post-emerge Herbicidal Activity, phytotoxicity rating DIGSA” value ([21]; Rate 250 g ai/ha) was 100. The “Post-emerge phytotoxicity rating CORN (crop damage)” value ([22]; Rate 63 g ai/ha) was 95, the “Post-emerge phytotoxicity rating CORN (crop damage)” value ([22]; Rate 250 g ai/ha) was 100 and the “Post-emerge phytotoxicity rating RICE (crop damage)” value ([23]; Rate 63 g ai/ha) was 10. For the same molecule, the “Post-emerge phytotoxicity rating RICE (crop damage)” value ([23]; Rate 250 g ai/ha) was 25, the “Pre-emerge herbicidal activity, phytotoxicity rating AMARE” value ([24]; 63 g ai/ha) was 90 and the “Pre-emerge herbicidal activity, phytotoxicity rating AMARE” value ([24]; 250 g ai/ha) was 100.
